One may read the pEC50 as the negative decadic logarithm of the EC50, by convention in mol/L. As a reminder, the pIC50 is the negative decadic logarithm of the IC50, by convention in mol/L.

Each structure is given as a SMILES string. pEC50, pIC50: −log10 of the molar value. A value given as a limit tells only on which side of the number the result lay.

One assay has as its system SARS-CoV-2. Kind of assay: Cytopathic effect (CPE) suppression effect confirmation test using HEK293T/ACE2-TMPRSS2 cells. Type of assay: cell-based. Conditions: Severe acute respiratory syndrome coronavirus 2, HEK-293T; 50% SARS-CoV-2 infected cell death inhibitory concentration; HEK293T/ACE2-TMPRSS2 cells; read-out: EC50. For orientation: Protection from cytopathic effect is a common read-out in antiviral testing.

Assay [1] addresses Recombinant SARS-CoV-2 3CL Protease (Severe acute respiratory syndrome coronavirus 2 (2019-nCoV) (SARS-CoV-2), UniProt P0DTD1). Kind of assay: biochemical. The class given is biochemical. The settings on record: 50% SARS-CoV-2 3CL protease inhibitory concentration; read-out: IC50.

Consider `N#CCn1c(N2CCC(C(F)F)CC2)c(-c2ccc(F)c(C#N)c2)c(=O)n(-c2cncc(Cl)c2)c1=O` [Compound I-398], for which the pEC50 in the assay with SARS-CoV-2 is greater than 7.00. The pIC50 in assay [1] is greater than 8.00.
In the same order, the values of `N#CCn1c(N2CC[C@@](O)(C(F)F)C2)c(-c2ccc(F)c(Cl)c2)c(=O)n(-c2cncc(C#N)c2)c1=O` [Compound I-399] are greater than 7.00 and greater than 8.00.
As for `N#CCn1c(N2CC[C@](O)(C(F)F)C2)c(-c2ccc(F)c(Cl)c2)c(=O)n(-c2cncc(C#N)c2)c1=O` [Compound I-400], in the assay on SARS-CoV-2, the pEC50 was greater than 7.00. Also, the pIC50 in assay [1] is greater than 8.00.
As for `N#CCn1c(N2CCC(F)(F)CC2)c(-c2ccc(F)c(F)c2)c(=O)n(-c2cncc(Cl)c2)c1=O` [Compound I-401], the pEC50 in the assay with SARS-CoV-2 is greater than 7.00. Besides, the pIC50 in assay [1] was greater than 8.00.
With `N#CCn1c(N2CCC(C(F)(F)F)CC2)c(-c2ccc(F)c(C#N)c2)c(=O)n(-c2cncc(Cl)c2)c1=O` [Compound I-402], the pEC50 in the assay on SARS-CoV-2 was greater than 7.00. The pIC50 in assay [1] is greater than 8.00.
On to `N#CCn1c(N2CCC(F)(F)CC2)c(-c2ccc(F)c(Cl)c2)c(=O)n(-c2cncc(C#N)c2)c1=O` [Compound I-403], for which the pEC50 in the assay on SARS-CoV-2 was greater than 7.00. In assay [1], the pIC50 was greater than 8.00.
In the case of `N#CCn1c(N2CCC(C(F)F)CC2)c(-c2ccc(F)c(Cl)c2)c(=O)n(-c2cncc(C#N)c2)c1=O` [Compound I-404], the negative logarithm of the EC50 (pEC50) in the assay with SARS-CoV-2 is greater than 7.00. Further, the negative logarithm of the IC50 (pIC50) in assay [1] is greater than 8.00.
In the same order, the values of `CCCNC(=O)c1c(-c2ccc(F)c(Cl)c2)c(=O)n(-c2cncc(Cl)c2)c(=O)n1CC#N` [Compound I-405] are 6.00 to 7.00 and less than 7.00.
Regarding `CC(C)NC(=O)c1c(-c2ccc(F)c(Cl)c2)c(=O)n(-c2cncc(Cl)c2)c(=O)n1CC#N` [Compound I-406], in the assay with SARS-CoV-2, the pEC50 is 5.30 to 6.00. The negative-log IC50 (pIC50) in assay [1] is less than 7.00.
In the same order, the values of `N#CCn1c(CC2(O)CCC2)c(-c2ccc(F)c(Cl)c2)c(=O)n(-c2cncc(Cl)c2)c1=O` [Compound I-407] are greater than 7.00 and 7.00 to 8.00.
In the case of `N#CCn1c(N2CC(OC(F)(F)F)C2)c(-c2ccc(F)c(Cl)c2)c(=O)n(-c2cncc(OCF)n2)c1=O` [Compound I-408], the pEC50 in the assay on SARS-CoV-2 is greater than 7.00. Moreover, in assay [1], the pIC50 was greater than 8.00.
`N#CCn1c(N2CC(CO)C2)c(-c2ccc(F)c(Cl)c2)c(=O)n(-c2cncc(OCF)n2)c1=O` [Compound I-409]: the pEC50 in the assay on SARS-CoV-2 was greater than 7.00. Besides, the pIC50 in assay [1] was greater than 8.00.
With `N#CCn1c(N2CC(F)(C3CC3)C2)c(-c2ccc(F)c(Cl)c2)c(=O)n(-c2cncc(OCF)n2)c1=O` [Compound I-410], the pEC50 in the assay on SARS-CoV-2 was greater than 7.00. In assay [1], the pIC50 was greater than 8.00.
With `N#CCn1c(N2CC(O)(C(F)F)C2)c(-c2ccc(F)c(Cl)c2)c(=O)n(-c2cncc(OCF)n2)c1=O` [Compound I-411], in the assay on SARS-CoV-2, the negative-log EC50 (pEC50) was greater than 7.00. Also, the negative logarithm of the IC50 (pIC50) in assay [1] was greater than 8.00.
With `N#CCn1c(N2CCC(C(F)F)CC2)c(-c2ccc(F)c(F)c2)c(=O)n(-c2cncc(C#N)c2)c1=O` [Compound I-412], the pEC50 in the assay with SARS-CoV-2 was greater than 7.00. In addition, the pIC50 in assay [1] was greater than 8.00.
Regarding `N#CCn1c(N2CCC(C(F)F)CC2)c(-c2ccc(F)c(C(F)F)c2)c(=O)n(-c2cncc(C#N)c2)c1=O` [Compound I-413], the pEC50 in the assay with SARS-CoV-2 was greater than 7.00. Further, the pIC50 in assay [1] was greater than 8.00.
In the case of `CC(C)(O)CCc1c(-c2ccc(F)c(Cl)c2)c(=O)n(-c2cncc(C#N)c2)c(=O)n1CC#N` [Compound I-414], the pEC50 with SARS-CoV-2 was greater than 7.00. The pIC50 in assay [1] is greater than 8.00.
In the case of `N#CCn1c(N2CC(OC(F)F)C2)c(-c2ccc(F)c(C(F)F)c2)c(=O)n(-c2cncc(C#N)c2)c1=O` [Compound I-415], the pEC50 in the assay on SARS-CoV-2 was greater than 7.00. The pIC50 in assay [1] was greater than 8.00.
With `N#CCn1c(N2CC(O)C2)c(-c2ccc(F)c(C(F)F)c2)c(=O)n(-c2cncc(C#N)c2)c1=O` [Compound I-416], the pEC50 with SARS-CoV-2 was greater than 7.00. Moreover, in assay [1], the pIC50 was greater than 8.00.
Regarding `N#CCn1c(N2CCC(F)(F)CC2)c(-c2ccc(F)c(C(F)F)c2)c(=O)n(-c2cncc(C#N)c2)c1=O` [Compound I-417], in the assay with SARS-CoV-2, the pEC50 is greater than 7.00. The pIC50 in assay [1] was greater than 8.00.
Turning to `CCOC1CN(c2c(-c3ccc(F)c(Cl)c3)c(=O)n(-c3cncc(C(F)F)n3)c(=O)n2CC#N)C1` [Compound I-418], the pEC50 in the assay on SARS-CoV-2 is greater than 7.00. Besides, the negative logarithm of the IC50 (pIC50) in assay [1] was greater than 8.00.
For the compound `N#CCn1c(N2CC(OC(F)F)C2)c(-c2ccc(F)c(Cl)c2)c(=O)n(-c2cncc(OCF)n2)c1=O` [Compound I-420], the pEC50 with SARS-CoV-2 is greater than 7.00. In addition, in assay [1], the pIC50 is greater than 8.00.
Turning to `N#CCn1c(N2CC(C(F)(F)F)C2)c(-c2ccc(F)c(Cl)c2)c(=O)n(-c2cncc(OCF)n2)c1=O` [Compound I-421], the pEC50 with SARS-CoV-2 is greater than 7.00. Also, the negative logarithm of the IC50 (pIC50) in assay [1] was greater than 8.00.
As for `N#CCn1c(N2CCC(C(F)F)CC2)c(-c2ccc(F)c(Cl)c2)c(=O)n(-c2cncc(OCF)n2)c1=O` [Compound I-422], the pEC50 in the assay with SARS-CoV-2 was greater than 7.00. Moreover, in assay [1], the pIC50 was greater than 8.00.
Regarding `N#CCn1c(CCC2(O)CCC2)c(-c2ccc(F)c(C(F)F)c2)c(=O)n(-c2cncc(C#N)c2)c1=O` [Compound I-424], in the assay with SARS-CoV-2, the pEC50 is greater than 7.00. Further, in assay [1], the pIC50 is greater than 8.00.
For `N#CCn1c(CCC2(O)CCC2)c(-c2ccc(F)c(C(F)F)c2)c(=O)n(-c2cncc(Cl)c2)c1=O` [Compound I-425], the pEC50 in the assay on SARS-CoV-2 is greater than 7.00. The pIC50 in assay [1] was greater than 8.00.
In the same order, the values of `N#CCn1c(N2CC3(C2)CC(F)(F)C3)c(-c2ccc(F)c(Cl)c2)c(=O)n(-c2cc(Cl)c[n+]([O-])c2)c1=O` [Compound I-426] are greater than 7.00 and greater than 8.00.
In the same order, the values of `COCc1c(-c2ccc(F)c(Cl)c2)c(=O)n(-c2cncc(Cl)c2)c(=O)n1CC#N` [Compound I-435] are greater than 7.00 and 7.00 to 8.00.
As to `N#CCn1c(CCC2(O)CCC2)c(-c2ccc(F)c(F)c2)c(=O)n(-c2cncc(Cl)c2)c1=O` [Compound I-436], in the assay on SARS-CoV-2, the pEC50 was greater than 7.00. Further, the pIC50 in assay [1] is greater than 8.00.
For `N#CCn1c(N2CC(OC(F)F)C2)c(-c2ccc(F)c(Cl)c2)c(=O)n(-c2cncc(C#N)c2)c1=O` [Compound I-437], the pEC50 with SARS-CoV-2 was greater than 7.00. Besides, the pIC50 in assay [1] was greater than 8.00.
Taken in the same sequence, the figures for `C#CCn1c(C)c(-c2ccc(F)c(Cl)c2)c(=O)n(-c2cncc(Cl)c2)c1=O` [Compound I-438] were greater than 7.00 and greater than 8.00.
With `N#CCn1c(N2CC(O)(c3ncccn3)C2)c(-c2ccc(F)c(C(F)F)c2)c(=O)n(-c2cncc(C#N)c2)c1=O` [Compound I-439], the pEC50 with SARS-CoV-2 was greater than 7.00. For the same compound, the pIC50 in assay [1] was greater than 8.00.
In the case of `C#CCn1c(CC(C)(C)F)c(-c2ccc(F)c(Cl)c2)c(=O)n(-c2cncc(Cl)c2)c1=O` [Compound I-440], the pEC50 in the assay on SARS-CoV-2 is greater than 7.00. Also, in assay [1], the pIC50 was greater than 8.00.
In the case of `Cc1c(-c2ccc(F)c(Cl)c2)c(=O)n(-c2cncc(Cl)c2)c(=O)n1CC(N)=O` [Compound I-441], the pEC50 in the assay on SARS-CoV-2 is greater than 7.00. Further, the pIC50 in assay [1] was 7.00 to 8.00.
`CC(=O)Cn1c(C)c(-c2ccc(F)c(Cl)c2)c(=O)n(-c2cncc(Cl)c2)c1=O` [Compound I-442]: the pEC50 in the assay with SARS-CoV-2 is greater than 7.00. Besides, the pIC50 in assay [1] is 7.00 to 8.00.
In the case of `Cc1c(-c2ccc(F)c(Cl)c2)c(=O)n(-c2cncc(Cl)c2)c(=O)n1CC(=O)CO` [Compound I-443], the negative logarithm of the EC50 (pEC50) in the assay on SARS-CoV-2 is 6.00 to 7.00. Also, the pIC50 in assay [1] is less than 7.00.
On to `CC(=O)OCC(=O)Cn1c(C)c(-c2ccc(F)c(Cl)c2)c(=O)n(-c2cncc(Cl)c2)c1=O` [Compound I-444], for which the pEC50 in the assay with SARS-CoV-2 is 6.00 to 7.00. Also, in assay [1], the pIC50 is less than 7.00.

For the origin of these results see patent publication US20250092056A1, “URACIL DERIVATIVES HAVING VIRUS REPLICATION INHIBITORY ACTIVITY AND PHARMACEUTICAL COMPOSITION COMPRISING THE SAME” (Shionogi & Co., Ltd., priority 2022, published 2025).
